Source: patent publication US10065990B2, “Cyclic peptide compound, and preparation method, pharmaceutical composition and use thereof” (HANGZHOU GUANYU BIO-MEDICAL CO., LTD, priority 2013, dated 2018)
Read-outs that look alike come from different tables or passages of the source.

Legend:
[1] = test system: H1975 (non-small cell lung adenocarcinoma); experiment: MTT cancer cell growth inhibition; format: cell-based; conditions: Homo sapiens, NCI-H1975, 72 h, MTT, 72 hours incubation, H1975 cells; read-out: GI50 H1975
How it was run: (§1)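 Read-out was formazan absorbance at 570 nm after a 4 h MTT step and DMSO solubilisation, converted to cell viability and fitted for GI50. Beforehand, cells (1500/well, overnight attachment) were treated with compound at 10^−5 to 10^−10 M for 72 h at 37° C.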

[2] = test system: N-87 (human gastric cancer cells); experiment: MTT cancer cell growth inhibition; format: cell-based; conditions: Homo sapiens, 72 h, MTT, 72 hours incubation, N-87 cells; read-out: GI50 N-87
How it was run: as §1

[3] = test system: U937 (human leukemia cells); experiment: MTT cancer cell growth inhibition; format: cell-based; conditions: MTT, 72 hours incubation, read-out: GI50 U93
How it was run: as §1

[4] = test system: HCC827 (human non-small cell lung cancer cells); experiment: MTT cancer cell growth inhibition; format: cell-based; conditions: Homo sapiens, HCC827, 72 h, MTT, 72 hours incubation, HCC827 cells; read-out: GI50 HCC827
How it was run: as §1

[5] = test system: HT1080 (human fibrosarcoma cells); experiment: MTT cancer cell growth inhibition; format: cell-based; conditions: MTT, 72 hours incubation, read-out: GI50 HT1
How it was run: as §1

[6] = test system: KBM5-T315I (human chronic myelogenous leukemia); experiment: MTT cancer cell growth inhibition; format: cell-based; conditions: Homo sapiens, 72 h, MTT, 72 hours incubation, KBM5-T315I cells; read-out: GI50 KBM5-T315I
How it was run: as §1

[7] = test system: lncap (prostate cancer cells); experiment: MTT cancer cell growth inhibition; format: cell-based; conditions: Homo sapiens, LNCaP, 72 h, MTT, 72 hours incubation, read-out: GI50 lnca
How it was run: as §1

[8] = test system: Hela (human cervical cancer cells); experiment: MTT cancer cell growth inhibition; format: cell-based; conditions: MTT, 72 hours incubation, read-out: GI50 Hela
How it was run: as §1

[9] = test system: DU145 (human prostate cancer cells); experiment: MTT cancer cell growth inhibition; format: cell-based; conditions: Homo sapiens, DU-145, 72 h, MTT, 72 hours incubation, read-out: GI50 Du1
How it was run: as §1

[10] = test system: Bel-7402 (human hepatoma cells); experiment: MTT cancer cell growth inhibition; format: cell-based; conditions: MTT, 72 hours incubation, Bel-7402 cells, read-out: GI50 Bel-7402
How it was run: as §1

[11] = test system: MCF-7 (human breast cancer cells); experiment: MTT cancer cell growth inhibition; format: cell-based; conditions: 72 hours incubation, read-out: GI50 MCF
How it was run: as §1

[12] = test system: PANC-1 (Pac-1, human pancreatic cancer cells); experiment: MTT cancer cell growth inhibition; format: cell-based; conditions: Homo sapiens, PANC-1, 72 h, MTT, 72 hours incubation, read-out: GI50 PAN
How it was run: as §1

[13] = test system: A549 (human lung cancer cells); experiment: MTT cancer cell growth inhibition; format: cell-based; conditions: Homo sapiens, A549, 72 h, MTT, 72 hours incubation, read-out: GI50 A54
How it was run: as §1

[14] = test system: Huh-7 (human hepatoma cells); experiment: MTT cancer cell growth inhibition; format: cell-based; conditions: Homo sapiens, Huh-7, 72 h, MTT, 72 hours incubation, Huh-7 cells; read-out: GI50 Huh-7
How it was run: as §1

[15] = test system: SGC-7901 (human gastric cancer cells); experiment: MTT cancer cell growth inhibition; format: cell-based; conditions: Homo sapiens, SGC-7901, 72 h, MTT, 72 hours incubation, SGC-7901 cells; read-out: GI50 SGC-7901
How it was run: as §1

[16] = test system: K562 (human leukemia cells); experiment: MTT cancer cell growth inhibition; format: cell-based; conditions: Homo sapiens, K562, 72 h, MTT, 72 hours incubation, K562 cells; read-out: GI50 K562
How it was run: as §1

[17] = test system: MOLT-4 (human acute lymphoblastic leukemia cells); experiment: MTT cancer cell growth inhibition; format: cell-based; conditions: Homo sapiens, MOLT-4, 72 h, MTT, 72 hours incubation, read-out: GI50 Mol
How it was run: as §1

[18] = test system: BGC-823 (human gastric cancer cells); experiment: MTT cancer cell growth inhibition; format: cell-based; conditions: Homo sapiens, BGC-823, 72 h, MTT, 72 hours incubation, read-out: GI50 BG
How it was run: as §1

[19] = test system: MDA-MB-231 (breast cancer cells); experiment: MTT cancer cell growth inhibition; format: cell-based; conditions: Homo sapiens, MDA-MB-231, 72 h, read-out: GI50 MDA-MB-231, MTT, 72 hours incubation, MDA-MB-231 cells
How it was run: as §1

[20] = test system: KBM-5 (human chronic myelogenous leukemia); experiment: MTT cancer cell growth inhibition; format: cell-based; conditions: Homo sapiens, KBM5, 72 h, MTT, 72 hours incubation, KBM-5 cells; read-out: GI50 KBM-5
How it was run: as §1

HDAC7 = biological target: T1, HDAC7 (Homo sapiens, UniProt Q8WUI4); experiment: HDAC biochemical activity measurement (fluorescent substrate deacetylation);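 on all read-outs here: fluorogenic deacetylation assay using acetyl-lysine substrate at 20 µM, enzyme and compound incubated 30 min at 37 °C, then developer added, fluorescence read at 360/460 nm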; conditions: for IC50 HDAC7: 37° C. 30 minutes
T1 sequence (Q8WUI4 1-952): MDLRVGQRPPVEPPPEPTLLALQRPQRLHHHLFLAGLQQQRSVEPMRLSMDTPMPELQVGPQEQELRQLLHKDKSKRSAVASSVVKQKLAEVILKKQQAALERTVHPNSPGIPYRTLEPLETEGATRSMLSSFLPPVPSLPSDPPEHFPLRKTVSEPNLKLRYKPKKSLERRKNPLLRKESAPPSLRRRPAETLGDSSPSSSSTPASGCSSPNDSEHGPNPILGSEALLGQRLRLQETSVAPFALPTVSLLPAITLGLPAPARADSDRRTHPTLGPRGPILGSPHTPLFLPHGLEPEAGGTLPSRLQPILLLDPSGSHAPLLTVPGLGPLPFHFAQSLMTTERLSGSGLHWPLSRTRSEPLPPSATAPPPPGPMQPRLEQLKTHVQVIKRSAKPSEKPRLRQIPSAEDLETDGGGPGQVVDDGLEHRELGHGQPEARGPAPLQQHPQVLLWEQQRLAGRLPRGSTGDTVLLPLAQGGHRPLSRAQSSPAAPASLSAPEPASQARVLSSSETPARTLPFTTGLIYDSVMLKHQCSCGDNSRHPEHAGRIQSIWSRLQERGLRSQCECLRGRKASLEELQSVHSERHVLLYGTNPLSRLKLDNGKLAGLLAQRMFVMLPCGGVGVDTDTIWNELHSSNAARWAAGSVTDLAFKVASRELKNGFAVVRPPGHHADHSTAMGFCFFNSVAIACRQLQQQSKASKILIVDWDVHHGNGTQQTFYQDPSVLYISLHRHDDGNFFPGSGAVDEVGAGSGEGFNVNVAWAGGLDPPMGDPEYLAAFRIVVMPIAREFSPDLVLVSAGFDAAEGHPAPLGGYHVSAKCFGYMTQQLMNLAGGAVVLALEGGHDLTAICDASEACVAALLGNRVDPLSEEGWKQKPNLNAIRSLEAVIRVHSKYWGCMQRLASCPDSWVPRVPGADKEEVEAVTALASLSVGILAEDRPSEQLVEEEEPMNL

[21] = Homo sapiens, U-937, 72 h, U937 cells
[22] = Homo sapiens, HT-1080, 72 h, HT1080 cells
[23] = Homo sapiens, HeLa, 72 h, Hela cells
[24] = Homo sapiens, MCF7, 72 h, MCF-7 cells

SMILES	GI50 [1] [nM]	GI50 [2] [nM]	GI50 [3, 21] [nM]	GI50 [4] [nM]	GI50 [5, 22] [nM]	GI50 [6] [nM]	GI50 ([7]; lncap cells) [nM]	GI50 [8, 23] [nM]	GI50 ([9]; DU145 cells) [nM]	GI50 ([10]; Homo sapiens, Bel-7402, 72 h) [nM]	GI50 ([12]; PANC-1 cells) [nM]	GI50 ([13]; A549 cells) [nM]	GI50 [14] [nM]	GI50 [15] [nM]	GI50 [16] [nM]	GI50 ([17]; MOLT-4 cells) [nM]	GI50 ([18]; BGC-823 cells) [nM]	GI50 [19] [nM]	GI50 [20] [nM]	IC50 HDAC7 (HDAC7)	also measured
C/C=C1\NC(=O)c2cc(SCC)cc(n2)CNC(=O)C[C@@H](/C=C/CCSC(=O)CCCCC)OC(=O)[C@H](C(C)C)NC1=O [Compound 254]	18	64	40	35	60	42	10	40	60	31	10	40	46	87	78	40	60	81	53	–	GI50 [11, 24]: 50 nM; IC50 (μM) HDAC7 (HDAC7): no activity
C/C=C1\NC(=O)c2cc(SC)cc(n2)CNC(=O)C[C@@H](/C=C/CCSC(C)=O)OC(=O)[C@H](CCCCNC(=O)OCC2c3ccccc3-c3ccccc32)NC1=O [Compound 196]	62	56	60	64	70	93	60	80	130	89	60	20	23	45	58	30	50	85	28	no activity	GI50 [11, 24]: 60 nM
C/C=C1\NC(=O)c2nc(ccc2SC)CNC(=O)C[C@@H](/C=C/CCSC(C)=O)OC(=O)[C@H](C)NC1=O [Compound 183]	41	37	–	46	–	65	60	–	30	–	50	70	47	48	25	60	60	49	51	no activity	GI50 ([3]; U937 cells): 20 nM; GI50 ([5]; HT1080 cells): 50 nM; GI50 ([8]; Hela cells): 110 nM; GI50 [10]: 25 nM; GI50 ([11]; MCF-7 cells): 40 nM
C/C=C1\NC(=O)c2nc(ccc2SC)CCNC(=O)C[C@@H](/C=C/CCSC(C)=O)OC(=O)[C@H](C(C)C)NC1=O [Compound 223]	19	75	20	27	80	28	10	50	60	32	50	20	54	96	55	50	30	35	53	no activity	GI50 [11, 24]: 40 nM

Further lines, with some results ahead:

GI50 [1] [nM]	GI50 [2] [nM]	GI50 [3, 21] [nM]	GI50 [4] [nM]	GI50 [5, 22] [nM]	GI50 [6] [nM]	GI50 ([7]; lncap cells) [nM]	GI50 [8, 23] [nM]	GI50 ([9]; DU145 cells) [nM]	GI50 ([10]; Homo sapiens, Bel-7402, 72 h) [nM]	GI50 ([12]; PANC-1 cells) [nM]	GI50 ([13]; A549 cells) [nM]	GI50 [14] [nM]	GI50 [15] [nM]	GI50 [16] [nM]	GI50 ([17]; MOLT-4 cells) [nM]	GI50 ([18]; BGC-823 cells) [nM]	GI50 [19] [nM]	GI50 [20] [nM]	IC50 HDAC7 (HDAC7)	SMILES	also measured
35	42	–	37	–	51	–	–	–	92	–	–	73	34	35	–	–	86	73	no activity	C/C=C1\NC(=O)c2cccc(n2)CNC(=O)C[C@@H](/C=C/CCS)OC(=O)[C@H](CC)NC1=O [Example 28]	GI50 ([3]; Homo sapiens, U-937, 72 h): 2110 nM; GI50 ([5]; Homo sapiens, HT-1080, 72 h): 40 nM; GI50 [7]: 390 nM; GI50 ([8]; Homo sapiens, HeLa, 72 h): 810 nM; GI50 [9]: 430 nM; GI50 ([11]; Homo sapiens, MCF7, 72 h): 930 nM; GI50 [12]: 20 nM; GI50 [13]: 420 nM; GI50 [17]: 80 nM; GI50 [18]: 1100 nM
21	62	–	69	–	67	–	–	–	27	–	–	35	51	36	–	–	39	68	no activity	C/C=C1\NC(=O)c2cccc(n2)CNC(=O)C[C@@H](/C=C/CCS)OC(=O)[C@H](Cc2cccc3ccccc23)NC1=O [Compound 123]	GI50 ([3]; Homo sapiens, U-937, 72 h): 60 nM; GI50 ([5]; Homo sapiens, HT-1080, 72 h): 90 nM; GI50 [7]: 90 nM; GI50 ([8]; Homo sapiens, HeLa, 72 h): 90 nM; GI50 [9]: 60 nM; GI50 ([11]; Homo sapiens, MCF7, 72 h): 60 nM; GI50 [12]: 40 nM; GI50 [13]: 60 nM; GI50 [17]: 90 nM; GI50 [18]: 40 nM
